Source: US8513409B2, “Introverted CB[n] compounds” (University of Maryland, priority 2005, dated 2013)
Each block holds one compound with its values, some of them ahead of it.

Legend:
[1] = conc. HCl 100° C., reported by Day and co-workers; cited from earlier work
[2] = Solubility of CB[n] in water, aqueous MeOH, HCl and Na2SO4 solutions; format: physicochemical; settings: for solubility in 50% aqueous MeOH solution (v/v): 50% aqueous MeOH (v/v)
Procedure: CB[5]. […] By washing the crude solids repeatedly with large volumes of water a mixture of CB[5] and CB[7] was isolated. […] The solubility of CB[7] is less than 4 mg/mL in this solution. By extracting the solid mixture of CB[5] and CB[7] with 50% aq. MeOH CB[5] is separated from CB[7].
CB[8]. […] By washing the crude mixture of CB[6], CB[8], CB[5]@CB[10], introverted CB[6], and CB[8] with 3 M HCl CB[8] is isolated as an insoluble solid.
Introverted CB[6]. […] Na2SO4 which allows it to be isolated as an insoluble solid by washing and filtration.
Subsequent purification. The separation of each component (CB[5], CB[6], CB[7], CB[8], and iCB[6]) from Crop 1 and Crop 2 was enabled due to their differential solubility in HCl solutions. • CB[5] and CB[7]. […] By washing the crude mixture of CB[6], Cb[8], and iCB[6] with 3.5 M HC1 it is possible to isolate Cb[8] as an insoluble solid. • iCB[6] and CB[6]. CB[6] and iCB[6] were separated by fractional crystallization from different concentration HC1 solutions. For example, the initial CB[6]/iCB[6] mixture was recrystallized from a minimum volume of conc. HC1. The filtrate is enriched in iCB[n]; adding the filtrate to MeOH gives the precipitate which is filtered and dried. The solid now enriched in iCB[6] is recrystallized from 17.5% HC1 which gives CB[6] as a solid and filtrate further enriched in iCB[6]. In this manner, the ratio of iCB[6];CB[6] is raised to ≈80:20. At this point, the mixture is dissolved in a minimum of conc. HC1. To this solution is added enough H2N(CH2)6NH2 to complex all of the CB[6] (≈25%). This solution is then diluted 5-fold with H20. The precipitate is isolated by centrifugation and washed several times with H2O which yields iCB[6] as a white solid in 2% overall yield.

[3] = 1H NMR competition of CB[6] and i-CB[6] (1:1) for guest 1; format: binding; settings: slight excess of 1 added to CB[6] and i-CB[6] (1:1)
Procedure: (§1) FIG. 6 illustrates ^1HNMR spectra recorded for: a)) i-CB[6], CB[6] and 1 in a ratio of 1:1:2 (0.5M NaCl), and b) i-CB[7], 1 and 2 in a ratio of 1:1:1 (500 MHz, D2O), RT).
(§2) Because of their smaller cavities and more open portals i-CB[6] and i-CB[7] bind most guest molecules less tightly than their CB[n] counterparts do. For example, when a light excess of 1 is added to a solution containing CB[6] and i-CB[6] Alkyl ammonium ions such as 2 are known to bind tightly to CB[6] with values of Ka in the μM range. In contrast, 2 bind less strongly to i-CB[6] […] Similarly, i-CB[7] retains the ability to bind to guests commonly bound to CB[7]1,8 (e.g. 1.2, and (ferrocenemethyl)trimethylammonium ion (3)) but with lower affinity and higher kinetic liability. The association constants (Ka) for the guests 1, 2, and 3 with i-CB[7] measured by isothermal titration calorimetry (ITC) are (9±1)×10^6 M^−1, (8.8±0.9)×10^5 M^−1, and (2.2±0.1)×10^6 M^−1, respectively, which are 2 to 6 order of magnitude lower than those with CB[7].

[4] = Isothermal titration calorimetry of i-CB[7] with guest 1; format: binding; settings: ITC, water, 30° C.
Procedure: as §2
(§3) General. […] Melting points were measured on a Meltemp apparatus in open capillary tubes and are uncorrected. IR spectra were recorded on a Nicolet Magna or on a Perkin Elmer Spectrum GX FT-IR spectrophotometers as KBr pellets and are reported in cm^−1. NMR spectra were measured on a Bruker AM400 or on a Bruker DRX500 spectrometers operating at 400 or 500 MHz for ^1H and 100 or 125 MHz for ^13C. […] The formation constants for the inclusion of several guests in iCB[7] were determined by isothermal titration calorimetry using a VP-ITC instrument from MicroCal. […]

[5] = Isothermal titration calorimetry of i-CB[7] with guest 2; format: binding; settings: ITC, water, 30° C.
Procedure: as §2, §3

[6] = Isothermal titration calorimetry of i-CB[7] with guest 3; format: binding; settings: ITC, water, 30° C.
Procedure: FIG. 23 is a thermogram (top) and binding isotherm (bottom) of (ferrocenemethyl) trimethyl ammonium in complexing with i-CB[7] at 303K.
Because of their smaller cavities and more open portals i-CB[6] and i-CB[7] bind most guest molecules less tightly than their CB[n] counterparts do. For example, when a light excess of 1 is added to a solution containing CB[6] and i-CB[6] Alkyl ammonium ions such as 2 are known to bind tightly to CB[6] with values of Ka in the μM range. In contrast, 2 bind less strongly to i-CB[6] […] The association constants (Ka) for the guests 1, 2, and 3 with i-CB[7] measured by isothermal titration calorimetry (ITC) are (9±1)×10^6 M^−1, (8.8±0.9)×10^5 M^−1, and (2.2±0.1)×10^6 M^−1, respectively, which are 2 to 6 order of magnitude lower than those with CB[7].
as §3

[7] = 1H NMR competition of guests 1 and 2 for i-CB[7]; format: binding; settings: 1 and 2 in ratio 1:1:1
Description: as §1
For example, i-CB[7] binds aromatic guest 1 more strongly than linear aliphatic guest 2. […] Thus, the inverted glycoluril unit modulates guest binding affinity and rates of dissociation, both of which are of critical importance in the creation of CB[n] based molecular machines.

[8] = Stability of CB[n] and i-CB[n] on heating in acid (product resubmission); format: physicochemical; settings: purified compound heated in conc. DCl
Description: The fact that the isomerization of methylene bridged glycoluril dimmers follows mechanism 3 is not only useful in the synthesis of our compounds, but is important for the tailored synthesis of CB[n] and its derivatives. For example, Day and co-workers have recently shown that heating purified CB[8] in conc. […] (Scheme 3). In contrast, pure CB[5], CB[6], and CB[7] are stable under these conditions. […] This type of reaction would likely follow a pathway related to mechanism 1. […] In aqueous acid, it is likely that H2O can compete with the internal N and O nucleophiles of mechanism 3 for the capture of 19 (Scheme 2), effectively forcing fragmentation of the methylene bridges by a variation of mechanism 1. In the absence of competing nucleophiles, under anhydrous acidic conditions, CB[n] (n>8) and derivatives display enhanced stability. This facilitates the preparation of higher CB[n] compounds in a controllable manner when using anhydrous acidic conditions where water-sensitive functional groups are present. If such groups are not present acidic aqueous conditions may be used.
By “anhydrous acidic conditions,” we mean that in initial attempts “standard conditions” (ClCH2CH2Cl, anh. PTSA, reflux) are used, and if solubility problems occur then neat anhydrous PTSA (m.p. 38° C.) and/or CH3SO3H may be used. Based on results, CB[8] is stable to these conditions as depicted in Scheme 3. […]

solubility in 50% aqueous MeOH solution (v/v) [2]: about 33 mg/mL | solubility in water [2]: moderate solubility
Compound: O=C1N2CN3C(=O)N4CN5C(=O)N6CN7C(=O)N8CN9C(=O)N%10CN1C1C2N2CN%11C(=O)N(CN%12C(=O)N(CN%13C(=O)N(CN%14C(=O)N(CN1C2=O)C%10C9%14)C8C7%13)C6C5%12)C4C3%11 (stereo not drawn) [CB[5]]
stability on heating in conc. HCl [1]: stable

solubility in 3 M HCl solution ([2]; 3 M HCl): appreciable solubility | solubility in 3.5 M HCl solution ([2]; 3.5 M HCl): appreciable solubility
Compound: O=C1N2CN3C(=O)N4CN5C(=O)N6CN7C(=O)N8CN9C(=O)N%10CN%11C(=O)N%12CN1C1C2N2CN%13C(=O)N(CN%14C(=O)N(CN%15C(=O)N(CN%16C(=O)N(CN%17C(=O)N(CN1C2=O)C%12C%11%17)C%10C9%16)C8C7%15)C6C5%14)C4C3%13 (stereo not drawn) [CB[6]]
stability on heating in conc. HCl [1]: stable | share of host that forms a complex with guest 1 [3]: almost all

solubility in 50% aqueous MeOH solution (v/v) [2]: less than 4 mg/mL | solubility in water [2]: moderate solubility
Compound: O=C1N2CN3C(=O)N4CN5C(=O)N6CN7C(=O)N8CN9C(=O)N%10CN%11C(=O)N%12CN%13C(=O)N%14CN1C1C2N2CN%15C(=O)N(CN%16C(=O)N(CN%17C(=O)N(CN%18C(=O)N(CN%19C(=O)N(CN%20C(=O)N(CN1C2=O)C%14C%13%20)C%12C%11%19)C%10C9%18)C8C7%17)C6C5%16)C4C3%15 (stereo not drawn) [CB[7]]
stability on heating in conc. HCl [1]: stable

Compound: i-CB[7]
association constant (Ka) for guest 1 [4]: (9±1)×10^6 M^−1 | association constant (Ka) for guest 2 [5]: (8.8±0.9)×10^5 M^−1 | association constant (Ka) for guest 3 [6]: (2.2±0.1)×10^6 M^−1 | guest preference in presence of 1 equiv 1 and 2 [7]: the majority of i-CB[7] forms a complex with 1 | outcome of heating in conc. DCl [8]: a 4:1 mixture of CB[6], and CB[7] was obtained
